# Measurements reported in patent publication US11090324B2, “Composition, for remedying female climacteric syndrome symptoms, comprising tectorigenin 7-O-Xylosylglucoside” (LG Household & Health Care Ltd., priority 2017, dated 2021).
# Key:
# [1] = system: ovariectomy (OVX) female Sprague-Dawley rats; test: Serum CTX level (bone resorption marker) in ovariectomized rats, ELISA; format: in vivo, rat; conditions: for CTX: serum, 8 weeks, sham 42.3, OVX control 78.2
# Method: 11-12 week-old female Sprague-Dawley rats were subjected to sham operation (group 1, n=10) or ovariectomy (OVX) (groups 2-8, n=10 per each group). After a week from the operation, 0.01 mL of a sample per body weight (g) of each rat was administered orally every day for 4 weeks. 17β-Estradiol (E2) was administered to the positive control group and a 1:5:5 mixture of the three compounds tectorigenin, tectoridin and tectorigenin 7-O-xylosylglucoside was administered to the test groups. 4 weeks after the administration, the skin temperature at 2 cm where the tail starts was measured using an infrared thermometer. [table] In order to measure CTX (C-terminal telopeptide of type I collagen), which is a marker related with bone resorption, the same rats as in Example 2 were orally administered with a sample for 8 weeks and then serum was collected. The CTX level in the serum was measured using the rat C-telopeptide of type I collagen ELISA kit (MyBioSource) according to the manufacturer's instructions.
# estrogen receptors = test: ERE (estrogen response element) reporter assay; format: cell-based; conditions: sum of the concentrations of the three compounds 10 ppm; with respect to negative control group (1.0)
# Method: ERE (estrogen response element) reporter assay was performed to investigate the activity of the three compounds tectorigenin 7-O-xylosylglucoside, tectorigenin and tectoridin for estrogen receptors. Tectorigenin, tectoridin and tectorigenin 7-O-xylosylglucoside were treated at ratios described in Table 1 (the sum of the concentrations of the three compounds was 10 ppm).
# [2] = system: ovariectomy (OVX) female Sprague-Dawley rats; test: Tail skin temperature of ovariectomized rats (vasomotor symptoms); format: in vivo, rat; conditions: oral 4 weeks, mixture 5 and 10 mg/kg/day, single compounds 10 mg/kg/day
# Source text: It is known that 75% of […] women experience vasomotor symptoms. Facial flushing (hot flush) is the representative symptom where the skin on face, neck and chest is reddened abruptly, accompanied by unpleasant flushing and sweating. The change in the vasomotor symptoms can be evaluated by measuring the change in skin temperature. In an animal experiment, it can be measure by the skin temperature of the rat tail (Guidelines for evaluation of health functional food, ‘Helpful for health of […] women’, National Institute of Food and Drug Safety Evaluation). 11-12 week-old female Sprague-Dawley rats were subjected to sham operation (group 1, n=10) or ovariectomy (OVX) (groups 2-8, n=10 per each group). After a week from the operation, 0.01 mL of a sample per body weight (g) of each rat was administered orally every day for 4 weeks. 17β-Estradiol (E2) was administered to the positive control group and a 1:5:5 mixture of the three compounds tectorigenin, tectoridin and tectorigenin 7-O-xylosylglucoside was administered to the test groups. 4 weeks after the administration, the skin temperature at 2 cm where the tail starts was measured using an infrared thermometer. [table]
Activity for estrogen receptors Fold induction (estrogen receptors),Compound,CTX ([1]; 0.5 mg/kg/day oral),CTX ([1]; 10 mg/kg/day oral),Effect on increase in tail temperature caused by estrogen deficiency (in words) [2],"Effect on CTX level / bone resorption (in words) ([1]; oral 8 weeks, compared to the OVX group or to tectorigenin and tectoridin)"
–,"C[C@]12CC[C@@H]3c4ccc(O)cc4CC[C@H]3[C@@H]1CC[C@@H]2O [17β-estradiol (E2), 17β-Estradiol, reference compound]",52.6 ng/mL,–,–,–
–,"COc1c(O[C@@H]2O[C@H](CO)[C@@H](O)[C@H](O)[C@H]2O)cc2occ(-c3ccc(O)cc3)c(=O)c2c1O [Tectoridin, tectoridin]",–,70.4 ng/mL,–,–
34 fold,"COc1c(O[C@@H]2O[C@H](CO[C@@H]3OC[C@@H](O)[C@H](O)[C@H]3O)[C@@H](O)[C@H](O)[C@H]2O)cc2occ(-c3ccc(O)cc3)c(=O)c2c1O [Tectorigenin 7-O-xylosylglucoside, tectorigenin 7-O-xylosylglucoside]",–,58.4 ng/mL,best effect of suppressing increase in the tail temperature,most inhibited bone resorption
–,"COc1c(O)cc2occ(-c3ccc(O)cc3)c(=O)c2c1O [Tectorigenin, tectorigenin]",–,71.5 ng/mL,–,–
